Assay results published in ChEMBL document CHEMBL1137759, “Design, parallel synthesis, and crystal structures of biphenyl antithrombotics as selective inhibitors of tissue factor FVIIa complex. Part 1: Exploration of S2 pocket pharmacophores” (Bioorg Med Chem, 2009).

Key:
[1] = molecular target: Coagulation factor VII/tissue factor (Homo sapiens, UniProt P08709); experiment: Inhibition of tissue factor/factor 7a; assay type: protein-complex assay
[2] = molecular target: Plasminogen (Homo sapiens, UniProt P00747); experiment: Inhibition of plasmin
[3] = Selectivity ratio of IC50 for tissue factor/factor 7a to IC50 for trypsin
[4] = molecular target: Prothrombin (Homo sapiens, UniProt P00734); experiment: Inhibition of thrombin
[5] = molecular target: Coagulation factor X (Homo sapiens, UniProt P00742)
Coagulation factor X, sequence (P00742 41-179 limits assumed): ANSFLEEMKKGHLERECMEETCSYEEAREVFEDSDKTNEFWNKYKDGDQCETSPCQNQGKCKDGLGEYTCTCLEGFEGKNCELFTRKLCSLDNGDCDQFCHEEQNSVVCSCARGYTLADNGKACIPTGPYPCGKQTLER
Coagulation factor X, sequence (P00742 235-488 limits assumed): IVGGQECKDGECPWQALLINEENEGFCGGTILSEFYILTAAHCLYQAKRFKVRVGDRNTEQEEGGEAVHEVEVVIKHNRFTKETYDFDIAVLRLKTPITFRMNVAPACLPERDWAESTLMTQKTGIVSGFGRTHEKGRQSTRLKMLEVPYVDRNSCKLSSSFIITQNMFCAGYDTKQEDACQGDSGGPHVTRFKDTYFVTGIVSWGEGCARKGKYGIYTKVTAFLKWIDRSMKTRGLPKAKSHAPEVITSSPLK

Plasminogen, sequence (P00747 97-580 limits assumed): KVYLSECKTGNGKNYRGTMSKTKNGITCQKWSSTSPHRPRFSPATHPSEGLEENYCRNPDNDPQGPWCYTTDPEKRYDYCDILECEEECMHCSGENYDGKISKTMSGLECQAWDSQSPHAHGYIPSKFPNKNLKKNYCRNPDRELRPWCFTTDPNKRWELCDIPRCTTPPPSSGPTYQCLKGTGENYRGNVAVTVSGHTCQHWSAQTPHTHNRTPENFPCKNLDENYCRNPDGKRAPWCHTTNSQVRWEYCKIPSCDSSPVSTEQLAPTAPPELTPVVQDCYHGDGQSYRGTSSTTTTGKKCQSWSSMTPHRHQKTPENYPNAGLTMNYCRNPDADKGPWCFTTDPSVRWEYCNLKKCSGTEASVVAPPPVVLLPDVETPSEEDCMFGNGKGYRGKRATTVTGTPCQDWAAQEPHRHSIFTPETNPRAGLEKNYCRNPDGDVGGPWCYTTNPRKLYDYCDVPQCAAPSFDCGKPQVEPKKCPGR
Plasminogen, sequence (P00747 581-810 limits assumed): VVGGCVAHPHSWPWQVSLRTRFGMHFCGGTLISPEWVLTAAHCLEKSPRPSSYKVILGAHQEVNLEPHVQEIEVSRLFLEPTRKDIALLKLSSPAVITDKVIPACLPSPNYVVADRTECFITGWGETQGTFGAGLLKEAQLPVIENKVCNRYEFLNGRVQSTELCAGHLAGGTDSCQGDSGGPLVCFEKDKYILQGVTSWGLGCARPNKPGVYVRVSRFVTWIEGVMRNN
Coagulation factor VII/tissue factor, sequence (P08709 61-212 limits assumed): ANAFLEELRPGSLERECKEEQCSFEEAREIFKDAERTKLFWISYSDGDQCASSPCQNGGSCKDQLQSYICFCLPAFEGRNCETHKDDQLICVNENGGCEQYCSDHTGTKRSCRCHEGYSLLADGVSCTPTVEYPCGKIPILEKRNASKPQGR
Coagulation factor VII/tissue factor, sequence (P08709 213-466 limits assumed): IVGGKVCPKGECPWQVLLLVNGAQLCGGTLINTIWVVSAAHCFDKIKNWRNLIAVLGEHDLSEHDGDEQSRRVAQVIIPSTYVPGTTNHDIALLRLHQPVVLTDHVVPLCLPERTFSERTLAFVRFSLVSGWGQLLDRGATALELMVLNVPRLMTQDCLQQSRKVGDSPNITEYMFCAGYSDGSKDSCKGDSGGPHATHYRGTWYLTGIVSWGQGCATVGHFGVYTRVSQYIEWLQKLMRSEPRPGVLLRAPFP
Coagulation factor VII/tissue factor, sequence (P13726 33-295 partner limits assumed): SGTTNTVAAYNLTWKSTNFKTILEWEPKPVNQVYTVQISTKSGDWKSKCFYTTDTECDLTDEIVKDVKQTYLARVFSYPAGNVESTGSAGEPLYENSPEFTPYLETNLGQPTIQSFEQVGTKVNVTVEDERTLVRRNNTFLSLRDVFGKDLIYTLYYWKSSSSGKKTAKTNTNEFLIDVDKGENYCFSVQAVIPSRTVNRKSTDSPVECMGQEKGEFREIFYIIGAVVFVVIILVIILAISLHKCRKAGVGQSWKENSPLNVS

Row | SMILES | IC50 [1] [nM] | IC50 [2] [nM] | Ratio IC50 [3] | IC50 [4] [µM] | IC50 [5] [nM]
1 | CCCc1ccc(-c2ccc(C(=O)NCC(C)C)cc2C(=O)O)c(C(=O)Nc2ccc(C(=N)N)cc2)c1 | 92 | > 5000 | 450 | 39.6 | 46000
2 | CC(C)CNC(=O)c1ccc(-c2ccc(-c3ccoc3)cc2C(=O)Nc2ccc(C(=N)N)cc2)c(C(=O)O)c1 | 11 | 252 | 42.6 | 16.1 | 120
3 | CC(C)CNC(=O)c1ccc(-c2ccc(-c3nccs3)cc2C(=O)Nc2ccc(C(=N)N)cc2)c(C(=O)O)c1 | 104 | 494 | 14.1 | 70.4 | 230
4 | CC(C)CNC(=O)c1ccc(-c2ccccc2C(=O)Nc2ccc(C(=N)N)cc2)c(C(=O)O)c1 | 120 | – | 1.5 | 64 | 103000
5 | CC(C)CNC(=O)c1ccc(-c2ccc(Cc3ccccc3)cc2C(=O)Nc2ccc(C(=N)N)cc2)c(C(=O)O)c1 | 21 | 656 | 26.9 | 8.51 | 1750
6 | CC(C)CNC(=O)c1ccc(-c2ccc(-c3ccsc3CO)cc2C(=O)Nc2ccc(C(=N)N)cc2)c(C(=O)O)c1 | 36 | 408 | 84.4 | 50 | 450
7 | CC(C)CNC(=O)c1ccc(-c2ccc(-c3ccc(CO)s3)cc2C(=O)Nc2ccc(C(=N)N)cc2)c(C(=O)O)c1 | 650 | – | – | – | –
8 | CC(C)CNC(=O)c1ccc(-c2ccc(-c3ccncc3)cc2C(=O)Nc2ccc(C(=N)N)cc2)c(C(=O)O)c1 | 231 | – | 5.3 | 35.4 | 19400
9 | CC(C)CNC(=O)c1ccc(-c2ccc(-c3cscc3CO)cc2C(=O)Nc2ccc(C(=N)N)cc2)c(C(=O)O)c1 | 9 | 60 | 56.7 | 63.1 | 130
10 | CC(C)CNC(=O)c1ccc(-c2ccc(-c3cccs3)cc2C(=O)Nc2ccc(C(=N)N)cc2)c(C(=O)O)c1 | 10 | – | 16 | 8.02 | 150
11 | C=C(CO)c1ccc(-c2ccc(C(=O)NCC(C)C)cc2C(=O)O)c(C(=O)Nc2ccc(C(=N)N)cc2)c1 | 12 | 810 | 295 | 39.7 | 7100
12 | CC(C)CNC(=O)c1ccc(-c2ccc(-c3ccco3)cc2C(=O)Nc2ccc(C(=N)N)cc2)c(C(=O)O)c1 | 9 | 163 | 41.4 | 14.7 | 1300
13 | COc1ccc(-c2ccc(C(=O)NCC(C)C)cc2C(=O)O)c(C(=O)Nc2ccc(C(=N)N)cc2)c1 | 30 | 14400 | 25.3 | 14.9 | 6630
14 | CC(C)CNC(=O)c1ccc(-c2ccc(-c3ccsc3)cc2C(=O)Nc2ccc(C(=N)N)cc2)c(C(=O)O)c1 | 10 | 35 | 37.7 | 15 | 40
15 | CC(C)CNC(=O)c1ccc(-c2ccc(C(O)CO)cc2C(=O)Nc2ccc(C(=N)N)cc2)c(C(=O)O)c1 (stereo unspecified) | 1610 | – | – | – | –
16 | C=C(C)/C=C\c1ccc(-c2ccc(C(=O)NCC(C)C)cc2C(=O)O)c(C(=O)Nc2ccc(C(=N)N)cc2)c1 | 130 | – | – | – | 310
17 | CC(C)=CCc1ccc(-c2ccc(C(=O)NCC(C)C)cc2C(=O)O)c(C(=O)Nc2ccc(C(=N)N)cc2)c1 | 45 | 308 | 21.1 | 13 | 27000
18 | CC(C)CNC(=O)c1ccc(-c2ccc(C#CCCO)cc2C(=O)Nc2ccc(C(=N)N)cc2)c(C(=O)O)c1 | 500 | – | 0.8 | 17.9 | 59000
19 | C/C=C\Cc1ccc(-c2ccc(C(=O)NCC(C)C)cc2C(=O)O)c(C(=O)Nc2ccc(C(=N)N)cc2)c1 | 11 | 684 | 119 | 4.88 | 7600
20 | CC(C)CNC(=O)c1ccc(-c2ccc(-c3ccsc3C(=O)O)cc2C(=O)Nc2ccc(C(=N)N)cc2)c(C(=O)O)c1 | 190 | – | – | – | –
21 | CC(C)CNC(=O)c1ccc(-c2ccc(-c3cccnc3)cc2C(=O)Nc2ccc(C(=N)N)cc2)c(C(=O)O)c1 | 546 | – | 5.5 | 50 | 36500

Continued, values first:

Row | IC50 [1] [nM] | IC50 [2] [nM] | Ratio IC50 [3] | IC50 [4] [µM] | IC50 [5] [nM] | SMILES
22 | 926 | – | – | – | – | CC(C)CNC(=O)c1ccc(-c2ccc(C#CC(C)(C)O)cc2C(=O)Nc2ccc(C(=N)N)cc2)c(C(=O)O)c1
23 | 1220 | – | – | – | – | CC(C)CNC(=O)c1ccc(-c2ccc(CN)cc2C(=O)Nc2ccc(C(=N)N)cc2)c(C(=O)O)c1
24 | 97 | > 5000 | 61.8 | 12.3 | 50000 | CCc1ccc(-c2ccc(C(=O)NCC(C)C)cc2C(=O)O)c(C(=O)Nc2ccc(C(=N)N)cc2)c1
25 | 98 | – | 4.3 | 11.8 | 350 | CC(C)CNC(=O)c1ccc(-c2ccc(-c3ccccc3)cc2C(=O)Nc2ccc(C(=N)N)cc2)c(C(=O)O)c1
26 | 60 | – | – | – | – | CC(C)CNC(=O)c1ccc(-c2ccc(CN=[N+]=[N-])cc2C(=O)Nc2ccc(C(=N)N)cc2)c(C(=O)O)c1
27 | 42 | 2470 | 57.6 | 19.2 | 1900 | C=CCc1ccc(-c2ccc(C(=O)NCC(C)C)cc2C(=O)O)c(C(=O)Nc2ccc(C(=N)N)cc2)c1
28 | 67 | – | 5.7 | 50 | 50000 | CC(C)CNC(=O)c1ccc(-c2ccc(O)cc2C(=O)Nc2ccc(C(=N)N)cc2)c(C(=O)O)c1
29 | 20 | 554 | 114 | > 50 | 230 | CC(C)CNC(=O)c1ccc(-c2ccc(-c3cocc3CO)cc2C(=O)Nc2ccc(C(=N)N)cc2)c(C(=O)O)c1
30 | 25 | 1000 | 115 | 50.2 | 8140 | C#Cc1ccc(-c2ccc(C(=O)NCC(C)C)cc2C(=O)O)c(C(=O)Nc2ccc(C(=N)N)cc2)c1
31 | 9 | 242 | 133 | 157 | 50 | CC(C)CNC(=O)c1ccc(-c2ccc(-c3cscc3CN=[N+]=[N-])cc2C(=O)Nc2ccc(C(=N)N)cc2)c(C(=O)O)c1
32 | 34 | 127 | 48.8 | 50 | 5220 | CC#Cc1ccc(-c2ccc(C(=O)NCC(C)C)cc2C(=O)O)c(C(=O)Nc2ccc(C(=N)N)cc2)c1
33 | 14 | – | 30.7 | 19.9 | 50 | CC(C)CNC(=O)c1ccc(-c2ccc(-c3ccc[nH]3)cc2C(=O)Nc2ccc(C(=N)N)cc2)c(C(=O)O)c1
34 | 29 | 358 | 75.5 | 56.2 | 11300 | C=C(CCO)c1ccc(-c2ccc(C(=O)NCC(C)C)cc2C(=O)O)c(C(=O)Nc2ccc(C(=N)N)cc2)c1
35 | 24 | 1070 | 32.1 | 50 | 150 | CC(C)CNC(=O)c1ccc(-c2ccc(-c3occc3CO)cc2C(=O)Nc2ccc(C(=N)N)cc2)c(C(=O)O)c1
36 | 9 | – | 52.2 | 9.4 | 1650 | C=Cc1ccc(-c2ccc(C(=O)NCC(C)C)cc2C(=O)O)c(C(=O)Nc2ccc(C(=N)N)cc2)c1
37 | 11 | 913 | 127 | 42.1 | 8150 | CC(C)CNC(=O)c1ccc(-c2ccc(Cc3cccs3)cc2C(=O)Nc2ccc(C(=N)N)cc2)c(C(=O)O)c1
38 | 76 | – | 5.4 | 86.9 | 50 | CC(C)CNC(=O)c1ccc(-c2ccc(-c3cccn3C)cc2C(=O)Nc2ccc(C(=N)N)cc2)c(C(=O)O)c1
39 | 52 | – | 34 | 22.7 | 6620 | CC(C)CNC(=O)c1ccc(-c2ccc(C=CCO)cc2C(=O)Nc2ccc(C(=N)N)cc2)c(C(=O)O)c1
40 | 320 | – | – | – | – | CC(C)CNC(=O)c1ccc(-c2ccc(C#CCO)cc2C(=O)Nc2ccc(C(=N)N)cc2)c(C(=O)O)c1
41 | 13 | 70 | 40.8 | 17.9 | 1170 | C=C(C)c1ccc(-c2ccc(C(=O)NCC(C)C)cc2C(=O)O)c(C(=O)Nc2ccc(C(=N)N)cc2)c1
42 | 9 | – | 59.8 | 28 | 1500 | C=C=Cc1ccc(-c2ccc(C(=O)NCC(C)C)cc2C(=O)O)c(C(=O)Nc2ccc(C(=N)N)cc2)c1
43 | 330 | – | 13.3 | 50 | 640 | CC(C)CNC(=O)c1ccc(-c2ccc(-c3sccc3CO)cc2C(=O)Nc2ccc(C(=N)N)cc2)c(C(=O)O)c1
44 | 8 | 457 | 92.5 | > 50 | 20 | CC(C)CNC(=O)c1ccc(-c2ccc(-c3ccoc3CO)cc2C(=O)Nc2ccc(C(=N)N)cc2)c(C(=O)O)c1
45 | 33 | 229 | 54.2 | 110 | 10 | CC(C)CNC(=O)c1ccc(-c2ccc(-c3cscc3CN)cc2C(=O)Nc2ccc(C(=N)N)cc2)c(C(=O)O)c1
